Series [1] deals with T1, Nuclear receptor ROR-gamma (Homo sapiens, UniProt P51449).
T1 sequence (P51449 whole entry): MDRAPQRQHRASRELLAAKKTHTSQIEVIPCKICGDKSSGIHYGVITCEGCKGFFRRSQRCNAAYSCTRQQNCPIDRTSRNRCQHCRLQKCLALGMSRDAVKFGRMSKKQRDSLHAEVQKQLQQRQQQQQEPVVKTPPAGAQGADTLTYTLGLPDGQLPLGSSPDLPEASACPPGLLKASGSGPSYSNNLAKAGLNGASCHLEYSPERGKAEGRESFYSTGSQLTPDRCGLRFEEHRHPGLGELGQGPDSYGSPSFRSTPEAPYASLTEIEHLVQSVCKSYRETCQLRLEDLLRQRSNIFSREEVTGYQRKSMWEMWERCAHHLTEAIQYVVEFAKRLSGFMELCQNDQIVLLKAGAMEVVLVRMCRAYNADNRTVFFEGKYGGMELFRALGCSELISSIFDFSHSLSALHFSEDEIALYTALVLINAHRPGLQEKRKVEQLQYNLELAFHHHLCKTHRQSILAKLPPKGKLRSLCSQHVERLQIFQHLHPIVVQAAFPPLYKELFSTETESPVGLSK
Put plainly: Binding affinity to GST-tagged RORgamma LBD (unknown origin) assessed as inhibition of interaction with co-activatior peptide TRAP220 preincubated for 1 hr followed by TRAP220 addition by FRET analysis.

The target in series [2] is T1, Nuclear receptor ROR-gamma. The series is described as follows: Inverse agonist activity at RORgamma (unknown origin) transfected in HEK293T cells after 16 to 20 hrs by GAL4 luciferase reporter gene assay. In kind it is functional, cell-based, HEK-293T. A general note: Reporter assays use an easily measured gene product as a stand-in for the process of interest.
Series [3] has as its target T2, Nuclear receptor ROR-gamma (Mus musculus, UniProt P51450).
T2 sequence (P51450 whole entry): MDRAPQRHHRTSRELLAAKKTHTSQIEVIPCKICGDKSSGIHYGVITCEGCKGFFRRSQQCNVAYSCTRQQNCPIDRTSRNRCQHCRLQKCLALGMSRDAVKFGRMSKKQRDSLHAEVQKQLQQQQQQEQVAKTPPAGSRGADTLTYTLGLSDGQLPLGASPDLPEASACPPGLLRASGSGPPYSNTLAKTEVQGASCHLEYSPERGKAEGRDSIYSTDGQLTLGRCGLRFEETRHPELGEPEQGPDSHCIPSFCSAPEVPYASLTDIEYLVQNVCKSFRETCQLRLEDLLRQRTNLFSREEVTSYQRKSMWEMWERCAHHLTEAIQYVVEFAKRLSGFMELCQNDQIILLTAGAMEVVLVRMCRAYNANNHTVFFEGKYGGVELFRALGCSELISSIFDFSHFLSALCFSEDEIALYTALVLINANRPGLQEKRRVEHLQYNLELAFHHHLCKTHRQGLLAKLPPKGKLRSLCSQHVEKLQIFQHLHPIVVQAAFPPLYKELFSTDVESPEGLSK
The series is described as follows: Inverse agonist activity at RORgamma in C57BL/6 mouse splenocytes assessed as reduction of IL-17 production after 2 days by ELISA. It is filed as cell-based. (In general: In an ELISA, binding on a coated surface is turned into a signal by an enzyme label.)

The nature of series [4]: Kinetic aqueous solubility of the compound. The note with it: buffer; read-out: Kinetic_solubility. In kind it is physicochemical.
Series [5] in a line: Percentage unbound in human plasma. It is filed as ADME, cell-free.
A short description of series [6]: Percentage unbound in rat plasma. In kind it is ADME, cell-free.
Series [7] can be described thus: AUC in po dosed rat. In kind it is ADME, organism-based. The note with it: in vivo.
The target in series [8] is T3, Nuclear receptor ROR-alpha (Homo sapiens, UniProt P35398).
T3 sequence (P35398 whole entry): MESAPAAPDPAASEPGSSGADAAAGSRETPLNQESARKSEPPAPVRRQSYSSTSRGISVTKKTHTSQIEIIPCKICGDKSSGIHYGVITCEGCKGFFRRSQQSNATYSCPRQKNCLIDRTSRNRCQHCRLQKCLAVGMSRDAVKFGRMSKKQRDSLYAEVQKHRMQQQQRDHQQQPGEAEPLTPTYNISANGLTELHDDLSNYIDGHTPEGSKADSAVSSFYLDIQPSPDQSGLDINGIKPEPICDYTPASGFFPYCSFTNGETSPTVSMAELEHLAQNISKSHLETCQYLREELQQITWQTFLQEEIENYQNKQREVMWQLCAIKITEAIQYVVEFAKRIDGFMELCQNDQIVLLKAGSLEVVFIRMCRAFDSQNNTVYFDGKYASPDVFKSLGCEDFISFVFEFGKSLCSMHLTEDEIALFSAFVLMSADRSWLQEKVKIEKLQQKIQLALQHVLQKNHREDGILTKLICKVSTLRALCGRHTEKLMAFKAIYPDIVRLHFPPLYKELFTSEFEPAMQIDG
The series is described as follows: Inverse agonist activity at RORalpha (unknown origin).

Series [9] concerns the target T4, Nuclear receptor ROR-beta (Homo sapiens, UniProt Q92753).
T4 sequence (Q92753 whole entry): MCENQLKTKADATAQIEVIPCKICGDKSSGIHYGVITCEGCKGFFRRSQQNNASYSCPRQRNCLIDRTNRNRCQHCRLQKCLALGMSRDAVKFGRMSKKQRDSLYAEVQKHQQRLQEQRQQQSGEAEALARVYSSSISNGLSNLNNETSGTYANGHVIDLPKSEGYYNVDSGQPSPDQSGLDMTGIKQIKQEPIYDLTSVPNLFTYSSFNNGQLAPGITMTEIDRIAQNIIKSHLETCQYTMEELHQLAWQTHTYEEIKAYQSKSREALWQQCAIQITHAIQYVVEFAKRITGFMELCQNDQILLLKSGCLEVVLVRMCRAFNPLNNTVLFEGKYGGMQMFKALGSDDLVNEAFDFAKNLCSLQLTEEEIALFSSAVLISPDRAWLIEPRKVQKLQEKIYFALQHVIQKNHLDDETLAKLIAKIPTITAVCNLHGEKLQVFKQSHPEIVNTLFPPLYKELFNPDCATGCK
Put plainly: Inverse agonist activity at RORbeta (unknown origin).

In series [10] the target is T5, Nuclear receptor subfamily 1 group I member 2 (Homo sapiens, UniProt O75469).
T5 sequence (O75469 whole entry): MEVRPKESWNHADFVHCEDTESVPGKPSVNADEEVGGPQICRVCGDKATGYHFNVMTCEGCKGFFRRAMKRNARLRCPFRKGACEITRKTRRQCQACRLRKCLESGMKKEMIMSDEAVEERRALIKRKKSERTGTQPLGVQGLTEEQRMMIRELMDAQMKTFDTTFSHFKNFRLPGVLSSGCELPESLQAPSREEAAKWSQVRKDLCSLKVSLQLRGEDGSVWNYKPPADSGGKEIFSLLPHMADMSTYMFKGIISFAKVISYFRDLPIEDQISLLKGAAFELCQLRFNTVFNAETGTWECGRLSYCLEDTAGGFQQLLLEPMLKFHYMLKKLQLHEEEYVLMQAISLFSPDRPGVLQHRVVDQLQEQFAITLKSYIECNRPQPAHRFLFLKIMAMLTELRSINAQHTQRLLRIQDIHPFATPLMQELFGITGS
The series is described as follows: Activation of PXR (unknown origin).

Series [11] can be described thus: AUC (0 to 7 hrs) in rat at 10 mg/kg, po. It is filed as ADME, organism-based. Also noted: time < 7 hr, dose 10 mg/kg, route oral. The following applies: in vivo.
A short description of series [12]: AUC in mouse at 25 mg/kg, po. In kind it is ADME, organism-based. The note with it: in vivo.

SMILES strings stand for the structures. In brackets after ≈: the same amount, converted by molar mass.

Regarding `[2H]C([2H])([2H])N(C(=O)c1c(F)cccc1Cl)c1ccc(-c2cc(C(N)=O)ccc2Cl)cc1OCC(F)(F)F`, in series [1], the IC50 is 29 nM. Further, the figures for the EC50 in [2] and in series [3] were 98 nM and 895 nM, respectively. Also, the solubility kinetic in [4] was found to be 0.3 µg/mL (≈ 0.579 µM). The values for the fraction unbound in [5] and in series [6] were 0.003 and 0.002, respectively. Also, in series [7], the AUC is 3130 ng·h/mL.

With `[2H]C([2H])([2H])N(C(=O)c1c(F)cccc1Cl)c1ccc(-c2cc(NC(C)=O)nn2C(C)C)cc1N1CC2CC2C1` (stereo unspecified), the EC50 in series [3] stood at 38 nM; in series [8], 1600 nM; in [9], 1300 nM; in series [10], 9900 nM. Moreover, the solubility kinetic in [4] turned out to be 2.1 µg/mL (≈ 4.09 µM). Also, the fraction unbound in series [5] came to 0.014; in [6] it was 0.002. Besides, the AUC(0-t) at 7 h in [11] worked out at 1040 ng·h/mL. The compound also registered an AUC in series [12] of 2830 ng·h/mL.

As to `[2H]C([2H])([2H])N(C(=O)c1c(F)cccc1Cl)c1ccc(-c2cc(NC(=O)C(C)C)nn2C(C)C)cc1N1CC2CC2C1` (stereo unspecified), the EC50 in [2] is 15 nM; in [3], 128 nM.

Consider `[2H]C([2H])([2H])N(C(=O)c1c(F)cccc1Cl)c1ccc(-c2cc(NC(=O)NC(CO)CO)nn2C(C)C)cc1N1CC2CC2C1` (stereo unspecified), for which the EC50 in series [2] was 71 nM.

Turning to `[2H]C([2H])([2H])N(C(=O)c1c(F)cccc1Cl)c1ccc(-c2cc(NC(=O)OC3(C)CC3)nn2C(C)C)cc1N1CC2CC2C1` (stereo unspecified), a half-maximal response in series [2] (EC50) required 150 nM.

Consider `CC(=O)Nc1cc(-c2cnc(N(C)C(=O)c3c(F)cccc3Cl)c(N3CCCCC3)c2)n(C(C)C)n1`, for which the EC50 in series [3] amounted to 34 nM; in series [8], 9300 nM; in [9], 2300 nM; in [10], 5400 nM. In addition, the solubility kinetic in series [4] worked out at 37.4 µg/mL (≈ 72.9 µM). In addition, the fraction unbound in series [5] is 0.076; in series [6], 0.013. This compound also came in with an AUC(0-t) at 7 h in series [11] of 927 ng·h/mL. In series [12], this compound yielded an AUC of 2260 ng·h/mL.

As for `CC(=O)Nc1nc(-c2cnc(N(C)C(=O)c3c(F)cccc3Cl)c(N3CCCCC3)c2)n(C(C)C)n1`, the IC50 in series [1] was > 5000 nM. The EC50 in series [2] was > 1000 nM.

Usually IC50 stands for the concentration needed to halve the response being measured. Usually EC50 stands for the concentration needed to bring the measured effect to its halfway point. As a reminder, the fraction unbound is the share of the substance not bound to proteins or other matrix. Broadly, the AUC is the area under the concentration-time curve, a measure of exposure. Usually AUC(0-t) stands for exposure summed from dosing to a finite time, without extrapolation to infinity. A high value points to high exposure.

The record behind these values is ChEMBL document CHEMBL3596090, “Discovery of novel pyrazole-containing benzamides as potent RORγ inverse agonists” (Bioorg Med Chem Lett, 2015).
